From patent publication US10981872B1, “Di(2-aryl hydrozonopropanal) arene derivatives” (King Abdulaziz University, priority 2020, dated 2021)
Where two headings read alike, the source gives them in different places.

Legend:
[1] = test system: human colon carcinoma HCT-116 cells; experiment: MTT cell viability assay, HCT-116; format: cell-based
Description: (§1) Human alveolar basal epithelial cell line (A-549) and human colon carcinoma (HCT-116), purchased from ATCC, USA, were used to evaluate the anticancer properties of the compounds. Cells were routinely cultured in RPMI (Roswell Park Memorial Institute Medium), except HCT-116 cells which were cultured in McCoy's medium. All media were supplemented with 10% fetal bovine serum (FBS), 2 mM L-glutamine, 100 units/ml penicillin G sodium, 100 units/ml streptomycin sulphate, and 250 ng/ml amphotericin B. Cells were maintained at sub-confluency at 37° C. in humidified air containing 5% CO2. For sub-culturing, monolayer cells were harvested after trypsin/EDTA treatment at 37° C. Cells were used when confluence had reached 75%. Tested samples were dissolved in dimethyl sulphoxide (DMSO), and then diluted in the assay to begin with the indicated concentration. All cell culture material was obtained from Cambrex BioScience (Copenhagen, Denmark). All chemicals were from Sigma/Aldrich, USA, unless otherwise indicated. All experiments were repeated three times, unless otherwise indicated.
Cytotoxicity of tested samples was measured against different cancer cells using the MTT Cell Viability Assay. The 3-[4,5-dimethylthiazole-2-yl]-2,5-diphenyltetrazolium bromide (MTT) assay is based on the ability of an active mitochondrial dehydrogenase enzyme of living cells to cleave the tetrazolium rings of the yellow MTT and form dark blue insoluble formazan crystals which are largely impermeable to cell membranes, resulting in its accumulation within healthy cells. Dissolution of the cells results in the liberation of crystals, which are then solubilized. The number of viable cells is directly proportional to the level of soluble formazan dark blue color. The extent of the reduction of MTT was quantified by measuring the absorbance at 570 nm.
MTT solution: 5 mg/ml of MTT in 0.9% NaCl.
Acidified isopropanol: 0.04 N HCl in absolute isopropanol.
Cells (0.5×10^5 cells/well), in serum-free media, were plated in a flat bottom 96-well microplate, and treated with 20 μl of different concentrations of the tested samples for 48 h at 37° C., in a humidified 5% CO2 atmosphere. After incubation, media was removed and 40 μl MTT solution/well were added and the cells were incubated for an additional 4 h. MTT crystals were solubilized by adding 180 μl of acidified isopropanol/well and plates were kept at room temperature, followed by photometric determination of the absorbance at 570 nm using a microplate ELISA reader. Triplicate repeats were performed for each concentration and the average was calculated. Data were expressed as the percentage of relative viability compared with the untreated cells compared with the vehicle control, with cytotoxicity indicated by <100% relative viability
The percentage of relative viability was calculated using the following equation: [Absorbance of treated cells/Absorbance of control cells)]×100 Then the half maximal inhibitory concentration (IC50) was calculated from the equation of the concentration vs % of viability curve. Results and Discussion

[2] = MTT cell viability assay, A-549; format: cell-based, human; conditions: compared to the tumor cell line HCT116
Description: as §1, with “Tested samples were dissolved in dimethyl sulphoxide (DMSO), and then diluted in the assay to begin with the indicated concentration. All cell culture material was obtained from Cambrex BioScience (Copenhagen, Denmark). All chemicals were from Sigma/Aldrich, USA, unless otherwise indicated. All experiments were repeated three times, unless otherwise indicated.” left out
(§2) Cytotoxicity of tested samples was measured against different cancer cells using the MTT Cell Viability Assay. […] The extent of the reduction of MTT was quantified by measuring the absorbance at 570 nm. […]
(§3) Cells (0.5×10^5 cells/well), in serum-free media, were plated in a flat bottom 96-well microplate, and treated with 20 μl of different concentrations of the tested samples for 48 h at 37° C., in a humidified 5% CO2 atmosphere. […] MTT crystals were solubilized by adding 180 μl of acidified isopropanol/well and plates were kept at room temperature, followed by photometric determination of the absorbance at 570 nm using a microplate ELISA reader. […]

[3] = test system: normal human alveolar basal epithelial cell line (A-549); experiment: MTT cell viability assay, A-549; format: cell-based; conditions: A-549 versus HCT116
Description: as §1, with “Tested samples were dissolved in dimethyl sulphoxide (DMSO), and then diluted in the assay to begin with the indicated concentration. All cell culture material was obtained from Cambrex BioScience (Copenhagen, Denmark). All chemicals were from Sigma/Aldrich, USA, unless otherwise indicated. All experiments were repeated three times, unless otherwise indicated.” left out
as §2, §3

[4] = Homo sapiens, HCT-116, 48 h treatment, read-out: IC50 against the colon cancer cell line HCT 116

| SMILES | IC50 [1, 4] [nM] | other results |
| --- | --- | --- |
| Cc1ccc(NN=C(C=O)C(=O)c2ccc(C(=O)/C(C=O)=N/Nc3ccc(C)cc3)cc2)cc1 [Compound 9a] |  | IC50 ([1]; 48 h treatment, read-out: IC50 against the colon cancer cell line HCT 116): 126 nM |
| N#Cc1ccccc1N/N=C(/C=O)C(=O)c1ccc(C(=O)/C(C=O)=N/Nc2ccccc2C#N)cc1 [Compound 9b, 2-(2-((E)-1-(4-((Z)-2-(2-(2-cyanophenyl)hydrazineylidene)-3-oxopropanoyl)phenyl)-1,3-dioxopropan-2-ylidene)hydrazineyl)benzonitrile] | 299 |  |
| Cc1ccc(N/N=C(\C=O)C(=O)c2cccc(C(=O)/C(C=O)=N/Nc3ccc(C)cc3)n2)cc1 [Compound 11a, (2E,2′E)-3,3′-(pyridine-2,6-diyl)bis(3-oxo-2-(2-(p-tolyl)hydrazineylidene)propanal)] | 277 |  |
| N#Cc1ccccc1N/N=C(\C=O)C(=O)c1cccc(C(=O)/C(C=O)=N/Nc2ccccc2C#N)n1 [Compound 11b, 2,2′-(((2E,2′E)-pyridine-2,6-diylbis(1,3-dioxopropan-1-yl-2-ylidene))bis(hydrazin-1-yl-2-ylidene))dibenzonitrile] | 98 | IC50 ([1]; Homo sapiens, HCT-116, 48 h treatment, read-out: IC50 for HCT116 cancer cells): 98 ± 30 nM; Cytotoxic effects on the normal, non-tumorigenic A-549 cell line [2]: only weak cytotoxic effects; Selectivity index [3]: excellent selectivity index |
| COc1cccc2c1C(=O)c1c(O)c3c(c(O)c1C2=O)C[C@@](O)(C(=O)CO)C[C@@H]3O[C@H]1C[C@H](N)[C@H](O)[C@H](C)O1 [Doxorubicin, reference compound] | 126 |  |
